In publication PMC9782539, “Synthesis, Characterization and Biological Evaluation of Benzothiazole–Isoquinoline Derivative” (Molecules, 2022):

Legend:
BuChE = BuChE (Homo sapiens, UniProt P06276); assay: biochemical; format: biochemical
Method: (§1) Each concentration was tested three times in parallel, and 96 empty plates were taken, and 20 µL of the test sample or positive drug (10% DMSO was added to the blank control), 40 µL of AChE or BuChE (0.2 U/mL) and 100 µL of DTNB (0.001 mol/L) were added in turn, mixed well and incubated in a constant temperature water bath at 37 °C for 15 min.

AChE = AChE (Homo sapiens, UniProt P22303); assay: biochemical; format: biochemical
Method: as §1

MAO–B = target: T1, MAO–B (Rattus norvegicus, UniProt P19643); assay: MAO–B inhibitory activity (enzyme pre-incubated with chlorgiline); format: biochemical
T1 construct: the obtained SD rat liver mitochondrial concentrate was the experimental monoamine oxidase stock solution; from tissue; host or cells: male SD rat liver mitochondria
T1 sequence (P19643 1-520): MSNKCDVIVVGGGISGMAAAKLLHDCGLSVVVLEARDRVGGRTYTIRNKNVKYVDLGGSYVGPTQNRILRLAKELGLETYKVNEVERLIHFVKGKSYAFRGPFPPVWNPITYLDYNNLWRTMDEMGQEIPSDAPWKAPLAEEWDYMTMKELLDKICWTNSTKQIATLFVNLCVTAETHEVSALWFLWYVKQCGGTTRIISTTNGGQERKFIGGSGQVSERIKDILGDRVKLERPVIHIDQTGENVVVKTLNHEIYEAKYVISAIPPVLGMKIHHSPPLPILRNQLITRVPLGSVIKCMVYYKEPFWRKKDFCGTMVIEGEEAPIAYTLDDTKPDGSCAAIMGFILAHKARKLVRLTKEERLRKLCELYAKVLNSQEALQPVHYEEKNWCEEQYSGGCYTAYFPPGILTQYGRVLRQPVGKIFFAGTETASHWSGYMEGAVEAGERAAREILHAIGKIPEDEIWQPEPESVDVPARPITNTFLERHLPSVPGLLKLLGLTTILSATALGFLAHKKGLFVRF
Method: (§2) Male SD rats were sacrificed by decapitation, operated on ice, their livers were removed, and the liver surface was washed with precooled phosphate buffer. The liver was cut into pieces, and after washing (using PBS), 20 mL of 0.3 M sucrose buffer was added for homogenization. After fully homogenized, it was balanced by a tray balance. Low–temperature differential centrifugation was performed, and the obtained SD rat liver mitochondrial concentrate was the experimental monoamine oxidase stock solution, and was stored in a −80 °C refrigerator.
(§3) Added 25 µL of enzyme dilution solution and 25 µL of test derivatives (control group plus rasagiline, blank group plus 10% DMSO) to 96–well plate, incubated at 37 °C for 1 h, then 120 µL of substrate was added, 80 µL of chromogenic solution was added, incubated at 37 °C for 30 min, and its absorbance measured at 490 nm. In addition, in order to exclude the influence of protein, a protein control group was established, only the enzyme dilution was added, and the rest were replaced with PBS, and the absorbance value was detected at a wavelength of 490 nm. The inhibition rate of each concentration was substituted into the calculation software GraphPad Prism 8 to calculate the IC50 value.
(§4) The inhibition rate of each concentration was substituted into the calculation software GraphPad Prism 8 to calculate the IC50 value.

Cytotoxicity, MTT method = format: cell-based; conditions: mouse, L929 cells, 0–100 μM, read-out: cell viability (MTT)
Method: L929 (Shanghai Cell Bank, Chinese Academy of Sciences) cells were cultured in 10% fetal bovine serum: penicillin–streptomycin solution: MEM mixed medium with serum–free medium (10:1:90), and subcultured in a 5% carbon dioxide cell incubator at 37 °C, and the medium changed every other day.
In this experiment, L929 cells in the logarithmic growth phase were selected, and the cell density was adjusted to 2 × 10^4 cells per well. The cells were seeded in 96–well plates, and the 96–well plates seeded with cells were cultured in a 37 °C 5% carbon dioxide cell incubator. After 24 h, different concentrations of the test compound medium (6.5, 12.5, 25, 50, 100 μM) were added, and the blank group was added with drug–free medium, shaken gently, and placed at 37 °C 5%. The cells were cultured in a carbon dioxide cell incubator for 24 h, and each concentration was replicated 6 times. After 24 h, 20 μL of […] MTT solution (prepared in PBS with pH = 7.6) was added in the dark, and cultured in the cell incubator for another 4 h. After 4 h, the 96–well plate was taken out and the original medium was discarded. Added 160 μL DMSO, put it on a shaker and mixed well for about 10 min, used a microplate reader to measure its absorbance at 490 nm, recorded the results and analyzed.

ICR male mice = assay: Forced swimming test (FST); format: in vivo; conditions: i.p., 30 mg/kg; for Duration of Immobility: 30 min after administration, mean ± SEM (n = 8); for DID (%) percentage decrease in immobility duration: vs control
Method: Pharmacological experiments of antidepressant activity used FST in mice, fluoxetine hydrochloride was used as a positive control, and the vehicle solvent PFG–400 was used as a blank control. The experiment used ICR male mice (20 ± 2 g). Six benzothiazole–quinoline derivatives were dissolved in polyethylene glycol–400, and 30 min after administration (i.p., 30 mg/kg), the mice were each placed in a glass cylinder, recording the time of immobility. Duration of immobility outcomes is expressed as mean ± SEM. The t-test was used to make comparisons between groups.

MAO–A = target: T2, MAO–A (Rattus norvegicus, UniProt P21396); assay: MAO–A inhibitory activity (enzyme pre-incubated with pargyline); format: biochemical
T2 construct: the obtained SD rat liver mitochondrial concentrate was the experimental monoamine oxidase stock solution; from tissue; host or cells: male SD rat liver mitochondria
T2 sequence (P21396 1-526): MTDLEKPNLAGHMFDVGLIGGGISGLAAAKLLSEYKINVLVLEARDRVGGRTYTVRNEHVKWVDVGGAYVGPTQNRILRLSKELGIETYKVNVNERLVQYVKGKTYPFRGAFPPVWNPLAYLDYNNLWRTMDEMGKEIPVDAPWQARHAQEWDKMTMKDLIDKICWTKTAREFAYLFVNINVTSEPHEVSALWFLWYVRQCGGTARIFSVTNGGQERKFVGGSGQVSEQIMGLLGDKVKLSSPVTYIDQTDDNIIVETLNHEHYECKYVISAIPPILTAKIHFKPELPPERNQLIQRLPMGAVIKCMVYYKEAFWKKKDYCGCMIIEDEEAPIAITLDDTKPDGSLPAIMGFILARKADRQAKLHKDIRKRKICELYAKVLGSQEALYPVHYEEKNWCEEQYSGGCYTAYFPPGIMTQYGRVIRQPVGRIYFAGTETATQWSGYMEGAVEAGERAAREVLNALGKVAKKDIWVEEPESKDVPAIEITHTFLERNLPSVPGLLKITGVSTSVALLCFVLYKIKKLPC
Method: as §2, §3, §4

MAO = MAO inhibitory activity (Holts method, rat liver mitochondrial enzyme); format: biochemical
Method: as §2, §3

BuChE, sequence (P06276 29-602): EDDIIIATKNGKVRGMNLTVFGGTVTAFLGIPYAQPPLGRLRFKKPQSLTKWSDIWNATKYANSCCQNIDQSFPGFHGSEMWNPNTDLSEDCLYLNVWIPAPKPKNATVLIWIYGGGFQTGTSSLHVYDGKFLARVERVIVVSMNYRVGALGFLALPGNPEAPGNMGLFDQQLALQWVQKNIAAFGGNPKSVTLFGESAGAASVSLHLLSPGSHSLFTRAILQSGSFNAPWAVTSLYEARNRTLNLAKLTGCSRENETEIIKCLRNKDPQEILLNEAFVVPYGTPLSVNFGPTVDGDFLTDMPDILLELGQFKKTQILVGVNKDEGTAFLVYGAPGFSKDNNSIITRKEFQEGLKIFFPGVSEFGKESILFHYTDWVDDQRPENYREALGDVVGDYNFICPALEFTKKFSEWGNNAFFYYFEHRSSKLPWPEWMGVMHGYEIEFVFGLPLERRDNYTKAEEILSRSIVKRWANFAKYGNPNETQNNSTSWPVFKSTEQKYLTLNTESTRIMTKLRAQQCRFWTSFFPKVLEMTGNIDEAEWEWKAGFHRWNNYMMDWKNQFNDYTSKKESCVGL
AChE, sequence (P22303 32-614): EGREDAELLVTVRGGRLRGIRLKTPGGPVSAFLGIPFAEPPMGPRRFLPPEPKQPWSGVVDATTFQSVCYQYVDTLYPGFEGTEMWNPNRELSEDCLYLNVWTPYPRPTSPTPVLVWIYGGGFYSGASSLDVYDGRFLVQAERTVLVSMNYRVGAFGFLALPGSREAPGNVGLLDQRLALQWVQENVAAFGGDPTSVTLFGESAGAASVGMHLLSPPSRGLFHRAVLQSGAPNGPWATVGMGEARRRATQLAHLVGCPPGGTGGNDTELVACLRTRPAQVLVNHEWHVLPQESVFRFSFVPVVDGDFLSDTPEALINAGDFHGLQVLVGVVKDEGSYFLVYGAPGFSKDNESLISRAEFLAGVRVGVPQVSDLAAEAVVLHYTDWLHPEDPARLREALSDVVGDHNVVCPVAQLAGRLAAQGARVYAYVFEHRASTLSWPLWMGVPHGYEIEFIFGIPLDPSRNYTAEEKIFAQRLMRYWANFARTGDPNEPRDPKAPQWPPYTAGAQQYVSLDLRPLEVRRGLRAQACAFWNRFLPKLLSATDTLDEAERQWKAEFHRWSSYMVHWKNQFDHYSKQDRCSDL

Compound | IC50 (BuChE) [µM] | Inhibition Rate (%) BuChE (BuChE) [%] | IC50 (AChE) [µM] | Inhibition Rate (%) AChE (AChE) [%] | IC50 (MAO–B) [µM] | Inhibition Rate (%) MAO–B (MAO–B) [%] | viability at 24 h (Cytotoxicity, MTT method) [%] | Duration of Immobility (ICR male mice) [s] | DID (%) percentage decrease in immobility duration (ICR male mice) [%] | Inhibition Rate (%) MAO–A (MAO–A) [%] | IC50 (MAO) [µM] | Inhibition Rate of MAO (%) (MAO)
O=C(CN1CCc2ccccc2[C@H]1c1ccccc1)Nc1nc2c(Br)cccc2s1 [Compound 4d, (R)–N–(4–bromobenzo[d]thiazol–2–yl)–2–(1–phenyl–3,4–dihydroisoquinolin–2(1H)–yl)acetamide] | 14.6 ± 5.81 | 77.76 | > 150 | 0.55 | 3.26 ± 2.78 | 46.00 | > 90 | 62.3 ± 14.0 | 65.06 | 18.05 | 64.8 ± 4.2 | 43.37
Cc1cccc2sc(NC(=O)CN3CCc4ccccc4[C@H]3c3ccccc3)nc12 [Compound 4g, (R)–N–(4–methylbenzo[d]thiazol–2–yl)–2–(1–phenyl–3,4–dihydroisoquinolin–2(1H)–yl)acetamide] | 30.3 ± 4.59 | 72.64 | > 150 | 1.10 | 12.1 ± 3.47 | 51.39 | > 90 | 69.0 ± 15.7 | 61.32 | 9.03 | 14.8 ± 5.45 | 57.11
O=C(CN1CCc2ccccc2[C@H]1c1ccccc1)Nc1nc2ccc(Br)cc2s1 [Compound 4f, (R)–N–(6–bromobenzo[d]thiazol–2–yl)–2–(1–phenyl–3,4–dihydroisoquinolin–2(1H)–yl)acetamide] | > 150 | 32.32 | > 150 | 1.10 | 47.6 ± 1.82 | 46.49 | > 90 | 71.7 ± 4.9 | 59.83 | 15.04 | 41.8 ± 2.94 | 24.15
Cc1ccc2nc(NC(=O)CN3CCc4ccccc4[C@H]3c3ccccc3)sc2c1 [Compound 4i, (R)–N–(6–methylbenzo[d]thiazol–2–yl)–2–(1–phenyl–3,4–dihydroisoquinolin–2(1H)–yl)acetamide] | 19.2 ± 2.72 | 47.68 | > 150 | 2.21 | 16.5 ± 3.59 | 61.17 | > 90 | 83.8 ± 13.6 | 53.05 | 2.51 | 18.5 ± 1.69 | 26.46
O=C(CN1CCc2ccccc2[C@H]1c1ccccc1)Nc1nc2cc(Cl)ccc2s1 [Compound 4b, (R)–N–(5–chlorobenzo[d]thiazol–2–yl)–2–(1–phenyl–3,4–dihydroisoquinolin–2(1H)–yl)acetamide] | 17.6 ± 1.78 | 69.44 | > 150 | 4.42 | 40.8 ± 2.67 | 39.15 | > 90 | 85.7 ± 8.1 | 51.98 | 3.01 | 38.8 ± 3.76 | 39.27
